Data set [1] in a line: Pharmacokinetic / brain penetration studies in mice. The following applies: male, CD-1, mouse; for Kp: brain / plasma. In kind it is in vivo. On the procedure:
Pharmacokinetic studies were performed on male CD-1 mice aged 8-10 weeks. Mice were dosed as indicated in duplicates. At the time points, whole blood was obtained by retro-orbital bleeding and brain tissue was harvested. Blood samples were centrifuged to obtain plasma and brain tissue was washed and homogenized. Samples were extracted with acetonitrile and supernatant was dried using a speed-vac. Dried samples were solubilized in 50:50:0.1 acetonitrile:water:formic acid and quantified on an Agilent 6400 series Triple Quadrupole LC/MS.
Disclosed in table 5 Brain to plasma percentages and unbound ratios of drugs in brain to plasma of indicated drugs in non-tumor bearing mice

A further data set has as its system HK301. Description: GI50 assay (Cell Titer Glo proliferation, 3 days). In kind it is cell-based, human. The following applies: Homo sapiens, 72 h; HK301, 3 days; read-out: HK301 GI50. (In general: In ATP-based viability assays light output follows the ATP content of the culture.)
Data set [2] in a line: Protein binding (fraction unbound in blood and brain).
Another data set concerns GBM39. The data set is described as follows: GI50 assay (Cell Titer Glo proliferation, 3 days). The following applies: Homo sapiens, 72 h; GBM39, 3 days. Format: cell-based, human.

Broadly, the Kp is tissue or fluid exposure divided by exposure in the circulation. A word on the GI50: it is the concentration that inhibits growth by half. Usually fraction unbound stands for free concentration divided by total concentration. A high value points to weak binding.

Regarding `Fc1cccc(Nc2ncnc3cc4c(cc23)OCCO4)c1F` [JGK028], the Kp in data set [1] (non-tumor bearing mice) was 1.06. In addition, the Kp uu in data set [1] (Table 4, unbound partition coefficient of the brain and plasma, at equilibrium) stood at 1.04. In addition, the concentration for 50% growth inhibition (GI50) in the data set on HK301 was found to be 1.69 µM; in the data set with GBM39 it was 5.57 µM. In addition, the “Bound (blood)” value in data set [2] (blood) is listed as 98.56%. In addition, the fraction unbound in data set [2] (blood, Fu (blood)) came to 0.0144; in data set [2] (brain, Fu (brain)) it was 0.0141. Further, in data set [2] (brain), the “Bound (brain)” value is reported as 98.59%.
Compound `C#Cc1cccc(Nc2ncnc3cc4c(cc23)OCCO4)c1F` [JGK038, N-(3-Ethynyl-2-fluorophenyl)-7,8-dihydro[1,4]dioxino[2,3-g]quinazolin-4-amine] yielded a Kp in data set [1] (non-tumor bearing mice) of 0.843. In data set [1] (Table 5, unbound ratios of drugs in brain to plasma, non-tumor bearing mice), the Kp uu came to 0.575. Further, the figures for the GI50 with HK301 and with GBM39 were 0.791 µM and 2.95 µM, respectively. In addition, the “Bound (blood)” value in data set [2] (blood) is listed as 98.70%. Further, the fraction unbound in data set [2] (blood, Fu (blood)) turned out to be 0.013; in data set [2] (brain, Fu (brain)) it was 0.0089. For the same compound, the “Bound (brain)” value in data set [2] (brain) amounted to 99.11%.
As for `Fc1c(Br)cccc1Nc1ncnc2cc3c(cc12)O[C@@H](CN1CCNCC1)CO3` [JGK083S, (7S)—N-(3-Bromo-2-fluorophenyl)-7-[(piperazin-1-yl)methyl]-7,8-dihydro[1,4]dioxino [2,3-g]quinazolin-4-amine], in data set [1] (non-tumor bearing mice), the Kp worked out at 2.31. The GI50 stood at 0.529 µM in the data set with HK301 and 0.841 µM with GBM39. In data set [2] (blood), the “Bound (blood)” value came out at 92.98%. Besides, the free fraction (fraction unbound) was 0.0702 in data set [2] (blood, Fu (blood)) and 0.0242 in data set [2] (brain, Fu (brain)). The “Bound (brain)” value in data set [2] (brain) stood at 97.58%.
In data set [1] (non-tumor bearing mice), `CN1CCN(CC2COc3cc4ncnc(Nc5cccc(Br)c5)c4cc3O2)CC1` (stereo not drawn) [JGK074] showed a partition ratio (Kp) of 1.66. Further, the concentration for 50% growth inhibition (GI50) came out at 2.28 µM in the data set on HK301 and 6.67 µM in the data set on GBM39.
In the case of `C#Cc1cccc(N(C(C)=O)c2ncnc3cc(OCCOC)c(OCCOC)cc23)c1` [JGK002], the GI50 is 5.45 µM in the data set on HK301 and 19.8 µM in the data set with GBM39.
For the compound `Fc1c(Br)cccc1Nc1ncnc2c(F)c3c(cc12)OCCO3` [JGK071, N-(3-Bromo-2-fluorophenyl)-10-fluoro-7,8-dihydro[1,4]dioxino[2,3-g]quinazolin-4-amine], the figures for the 50% growth inhibitory concentration (GI50) in the data set with HK301 and with GBM39 were 5.75 µM and 10.3 µM, respectively.
For the compound `[2H]C1([2H])Oc2cc3ncnc(Nc4cccc(Cl)c4F)c3cc2OC1([2H])[2H]` [JGK036, N-(3-Chloro-2-fluorophenyl)(7,7,8,8-^2H4)-7,8-dihydro[1,4]dioxino[2,3-g]quinazolin-4-amine], the results for the 50% growth inhibitory concentration (GI50) in the data set on HK301 and with GBM39 were 1.05 µM and 4.51 µM, respectively.
For `Fc1c(F)c(F)c(Nc2ncnc3cc4c(cc23)OCCO4)c(F)c1F` [JGK030], the concentration for 50% growth inhibition (GI50) in the data set with HK301 was found to be 559 µM; with GBM39, 961 µM.
Regarding `C[C@@H]1Oc2cc3c(Nc4cccc(Br)c4F)ncnc3cc2O[C@@H]1C` (racemic) [JGK052, (±)-cis-N-(3-Bromo-2-fluorophenyl)-7,8-dimethyl-7,8-dihydro[1,4]dioxino[2,3-g]quinazolin-4-amine], the GI50 was determined as 3.87 µM in the data set with HK301 and 9.22 µM in the data set with GBM39.
`Fc1c(Br)cccc1Nc1ncnc2cc3c(cc12)OCC(CCN1CCOCC1)O3` (racemic) [JGK086, (±)-N-(3-Bromo-2-fluorophenyl)-8-[2-(morpholin-4-yl)ethyl]-7,8-dihydro[1,4]dioxino[2,3-g]quinazolin-4-amine]: the 50% growth inhibitory concentration (GI50) was determined as 2.56 µM in the data set with HK301 and 4.45 µM in the data set with GBM39.
For the compound `COc1cc2ncnc(Nc3cccc(Cl)c3F)c2cc1OC(C)=O` [JGK018], the GI50 is 1.07 µM with HK301 and 4.54 µM in the data set on GBM39.
`COC1N=C(N(C(=O)OC(C)(C)C)c2cccc(Cl)c2F)c2cc3c(cc2N1C(=O)OC(C)(C)C)OCCO3` (stereo not drawn) [JGK013]: the figures for the concentration for 50% growth inhibition (GI50) with HK301 and in the data set on GBM39 were 1.55 µM and 220 µM, respectively.
As to `Fc1ccc(Br)c(F)c1Nc1ncnc2cc3c(cc12)OCCO3` [JGK056, N-(3-Bromo-2,6-difluorophenyl)-7,8-dihydro[1,4]dioxino[2,3-g]quinazolin-4-amine], the GI50 in the data set with HK301 came out at 0.419 µM; in the data set with GBM39, 1.36 µM.
In the case of `Fc1c(Br)cccc1Nc1ncnc2cc3c(cc12)OCC(CN1CCCC1)O3` (racemic) [JGK079, (±)-N-(3-Bromo-2-fluorophenyl)-8-[(pyrrolidin-1-yl)methyl]-7,8-dihydro[1,4]dioxino[2,3-g]quinazolin-4-amine], the values for the 50% growth inhibitory concentration (GI50) in the data set with HK301 and with GBM39 were 7.21 µM and 15.7 µM, respectively.
Take `C#Cc1cccc(Nc2ncnc3cc(OC(=O)c4ccccc4)c(OC(=O)c4ccccc4)cc23)c1` [JGK006]: the GI50 stood at 11 µM in the data set on HK301 and 51.4 µM with GBM39.
With `CN(C)CCC1COc2cc3c(Nc4cccc(Br)c4F)ncnc3cc2O1` (racemic) [JGK087, (±)-N-(3-Bromo-2-fluorophenyl)-8-[2-(dimethylamino)ethyl]-7,8-dihydro[1,4]dioxino[2,3-g]quinazolin-4-amine], the concentration for 50% growth inhibition (GI50) in the data set on HK301 is 3.74 µM; in the data set with GBM39, 5.26 µM.
`Fc1c(Nc2ncnc3cc4c(cc23)OCCO4)ccc(Br)c1Br` [JGK054, N-(3,4-Dibromo-2-fluorophenyl)-7,8-dihydro[1,4]dioxino[2,3-g]quinazolin-4-amine]: the GI50 with HK301 was 5.72 µM; in the data set with GBM39, 7.7 µM.
As for `Fc1cc(F)c(Nc2ncnc3cc4c(cc23)OCCO4)c(F)c1` [JGK029], the GI50 was found to be 24.4 µM with HK301 and 34 µM in the data set on GBM39.
Regarding `COC(=O)[C@@H](Cc1ccc(Nc2ncnc3cc4c(cc23)OCCO4)cc1)NC(=O)OC(C)(C)C` [JGK014], the values for the GI50 in the data set with HK301 and with GBM39 were 11.8 µM and 27.9 µM, respectively.
Consider `Fc1ccc(F)c(Nc2ncnc3cc4c(cc23)OCCO4)c1` [JGK026], for which the concentration for 50% growth inhibition (GI50) with HK301 is 6.12 µM; in the data set on GBM39, 16.5 µM.
Taken in the same sequence, the figures for `Fc1ccc(Nc2ncnc3cc4c(cc23)OCCO4)c(F)c1Br` [JGK057, N-(3-Bromo-2,4-difluorophenyl)-7,8-dihydro[1,4]dioxino[2,3-g]quinazolin-4-amine] were 1.38 µM and 9.36 µM.
Taken in the same sequence, the figures for `Fc1c(Br)cccc1Nc1ncnc2cc3c(cc12)OC(CCN1CCCC1)CO3` (racemic) [JGK084, (±)-N-(3-Bromo-2-fluorophenyl)-7-[2-(pyrrolidin-1-yl)ethyl]-7,8-dihydro[1,4]dioxino[2,3-g]quinazolin-4-amine] were 1.83 µM and 5.64 µM.
On to `Fc1c(Br)cccc1Nc1ncnc2cc3c(cc12)OC(CCN1CCCCC1)CO3` (racemic) [JGK085, (±)-N-(3-Bromo-2-fluorophenyl)-7-[2-(piperidin-1-yl)ethyl]-7,8-dihydro[1,4]dioxino[2,3-g]quinazolin-4-amine], for which the concentration for 50% growth inhibition (GI50) in the data set on HK301 amounted to 1.02 µM; in the data set on GBM39 it was 2.62 µM.
The corresponding values for `N[C@@H](Cc1ccc(Nc2ncnc3cc4c(cc23)OCCO4)cc1)C(=O)O` [JGK023] are 86.2 µM and 96.3 µM.
For `OC1COc2cc3ncnc(Nc4cccc(Br)c4F)c3cc2O1` (racemic) [JGK050, (±)-4-(3-Bromo-2-fluoroanilino)-7,8-dihydro[1,4]dioxino[2,3-g]quinazolin-7-ol], the GI50 turned out to be 1.16 µM in the data set with HK301 and 3.57 µM in the data set with GBM39.
For the compound `CN1CCN(CC2COc3cc4c(Nc5cccc(Br)c5F)ncnc4cc3O2)CC1` (racemic) [JGK078, (±)-N-(3-Bromo-2-fluorophenyl)-8-[(4-methylpiperazin-1-yl)methyl]-7,8-dihydro[1,4]dioxino[2,3-g]quinazolin-4-amine], the 50% growth inhibitory concentration (GI50) in the data set with HK301 amounted to 2.03 µM; with GBM39, 5.76 µM.
For `Fc1ccc(Nc2ncnc3cc4c(cc23)OCCO4)c(F)c1` [JGK025], the GI50 was 10.7 µM in the data set on HK301 and 27.7 µM with GBM39.
Turning to `Fc1c(Br)cccc1Nc1ncnc2cc3c(cc12)OCC(CN1CCOCC1)O3` (racemic) [JGK076, (±)-N-(3-Bromo-2-fluorophenyl)-8-[(morpholin-4-yl)methyl]-7,8-dihydro[1,4]dioxino[2,3-g]quinazolin-4-amine], the results for the 50% growth inhibitory concentration (GI50) with HK301 and with GBM39 were 6.16 µM and 16.9 µM, respectively.
Consider `Fc1ccccc1Nc1ncnc2cc3c(cc12)OCCO3` [JGK035, N-(2-Fluorophenyl)-7,8-dihydro[1,4]dioxino[2,3-g]quinazolin-4-amine], for which the GI50 in the data set with HK301 came to 4.04 µM; in the data set with GBM39, 10.7 µM.
Regarding `N#Cc1cccc(Nc2ncnc3cc4c(cc23)OCCO4)c1` [JGK045, 3-[(7,8-Dihydro[1,4]dioxino[2,3-g]quinazolin-4-yl)amino]benzonitrile], the concentration for 50% growth inhibition (GI50) with HK301 turned out to be 3.94 µM; in the data set on GBM39, 10.9 µM.
Turning to `COC(=O)[C@H](Cc1ccc(Nc2ncnc3cc4c(cc23)OCCO4)cc1)NC(=O)OC(C)(C)C` [JGK015], the GI50 amounted to 2.15 µM with HK301 and 11.5 µM in the data set on GBM39.
The corresponding values for `Fc1c(Br)cccc1Nc1ncnc2cc3c(cc12)OCC(CCN1CCCCC1)O3` (racemic) [JGK090, (±)-N-(3-Bromo-2-fluorophenyl)-8-[2-(piperidin-1-yl)ethyl]-7,8-dihydro[1,4]dioxino[2,3-g]quinazolin-4-amine] are 2.39 µM and 4.33 µM.
Turning to `Oc1cc2ncnc(Nc3cccc(Cl)c3F)c2cc1O` [JGK022], the GI50 in the data set with HK301 stood at 31.1 µM; in the data set on GBM39, 150 µM.
As for `FC(F)(F)c1c(Cl)cccc1Nc1ncnc2cc3c(cc12)OCCO3` [JGK017], the 50% growth inhibitory concentration (GI50) with HK301 was 64.2 µM; in the data set on GBM39, 97.6 µM.
`CC(=O)N(c1cccc(Cl)c1F)c1ncnc2cc3c(cc12)OCCO3` [JGK0012]: the GI50 with HK301 stood at 5.48 µM; in the data set with GBM39, 10.8 µM.
With `CN(C)C[C@H]1COc2cc3ncnc(Nc4cccc(Br)c4F)c3cc2O1` [JGK066S], the GI50 in the data set with HK301 was determined as 0.301 µM; with GBM39, 2.63 µM.
